These results are taken from patent US7449560B2, “Phosophoinositoglycan binding proteins” (Sanofi-Aventis Deutschland GmbH, priority 2002, dated 2008).

In assay [1] the test system is IcGce1p binding site at hcDIGs. As to the kind of experiment: Competition of synthetic PIG(-P) with radiolabeled IcGce1p binding to hcDIGs. Set-up: species or system rat. On the procedure:
(§1) 10 μl, of radiolabeled YCN-PIG or IcGce1p (60,000-80,000 dpm/nmol, final conc. 5 μM) was added to 40 μl of suspended plasma membranes, microsomes or hc/IcDIGs (40-80 μg of protein) in binding buffer in the absence or presence of unlabeled competitor (as indicated in the figure legends) in a total volume of 100 μl and incubated (30 min, 4° C.). […] After rigorous shaking (16 h, 25° C.), the radioactivity was counted in 9 ml of ACSII scintillation cocktail (Beckman). Under these conditions, sticking to the tube walls and partitioning into the oil layer of both radiolabeled YCN-PIG and IcGce1p accounted for 50-120 dpm (i.e. less than 0.5% of total radioactivity used per incubation) and therefore was not considered for calculation of binding data. […]
Radiolabeled Gce1p prepared from S. cerevisiae and treated with PI-specific PLC (B. cereus) was incubated (1 h, 4° C.) with hcDIGs (6.5 μg protein) isolated from untreated rat adipocytes in the absence or presence of unlabeled PIG-P. hcDIGs were subjected to oil-layer-centrifugation, solubilized and counted for radioactivity. […]

In assay [2] the test system is PIG(-P) receptor at hcDIGs. As to the kind of experiment: Competition of unlabeled PIG(-P) with radiolabeled YCN-PIG binding to hcDIGs. The conditions noted are these: for Binding affinity: hcDIGs of rat adipocytes; for efficacy in the competition assay (displacement of radiolabeled YCN-PIG from hcDIGs): unlabeled competitor. Set-up: species or system rat. On the procedure: (§2) 10 μl, of radiolabeled YCN-PIG or IcGce1p (60,000-80,000 dpm/nmol, final conc. 5 μM) was added to 40 μl of suspended plasma membranes, microsomes or hc/IcDIGs (40-80 μg of protein) in binding buffer in the absence or presence of unlabeled competitor (as indicated in the figure legends) in a total volume of 100 μl and incubated (30 min, 4° C.). For separation of membranes from the incubation medium, 45 μl aliquots were carefully layered over 200 μl, oil layers consisting of dibutyl phthalate and dioctyl phthalate (1/1 by vol., final density 1.012) in case of plasma membranes/microsomes or dibutyl phthalate and dinonyl phthalate (1/9 by vol., final density […]) in case of hc/IcDIGs in 0.4 ml precooled (4° C.) centrifugation tubes (microtubes no. 72.700, Sarstedt, Germany). […] After rigorous shaking (16 h, 25° C.), the radioactivity was counted in 9 ml of ACSII scintillation cocktail (Beckman). Under these conditions, sticking to the tube walls and partitioning into the oil layer of both radiolabeled YCN-PIG and IcGce1p accounted for 50-120 dpm (i.e. less than 0.5% of total radioactivity used per incubation) and therefore was not considered for calculation of binding data. Typical recoveries of plasma membranes and microsomes were 78-85% and 65-80%, respectively, and of hcDIGs and IcDIGs 83-92% and 70-78%, respectively, according to protein determination.
Radiolabeled YCN−PIG (18,000-22,000 dpm) was incubated (1 h, 4° C.) with hcDIGs (6.5 μg protein) in the absence or presence of increasing amounts of unlabeled YCN-PIG, YCN+PIG37, YMN-PIG, PIG37 and YCN (Competition). The membrane fractions/DIGs were subjected to oil-layer-centrifugation, recovered with/from the pellet/top of the oil layer, solubilized and counted for radioactivity.

The test system of assay [3] is PIG(-P) receptor at hcDIGs. As to the kind of experiment: Binding of radiolabeled YCN-PIG to hcDIGs (oil-layer centrifugation, Scatchard plot). Set-up: species or system rat. On the procedure: as §2, with “determination. […]” for “determination.”
Increasing amounts of radiolabeled YCN−PIG isolated from S. cerevisiae were incubated (1 h, 4° C.) with hcDIGs (6.5 μg protein), IcDIGs (6.5 μg), plasma membranes (47.5 μg) and microsomes (68 μg) from isolated rat adipocytes. The membrane fractions/DIGs were subjected to oil-layer-centrifugation, recovered with/from the pellet/top of the oil layer, solubilized and counted for radioactivity. Specific binding was calculated as the difference between radioactivity measured in the absence and presence of 10 μM unlabeled YCN−PIG. […]

Another assay concerns IcDIGs. As to the kind of experiment: Binding of radiolabeled YCN-PIG to IcDIGs. Details: species or system rat. The conditions noted are these: control adipocytes (no m-βCD). On the procedure: as §1
Radiolabeled YCN-PIG (12,000-18,000 dpm) was incubated (1 h, 4° C.) with the (proportional) amounts of hcDIGs and IcDIGs prepared from isolated rat adipocytes which had been pretreated (50 min, 30° C.) with increasing concentrations of m-βCD or left untreated. DIGs were subjected to oil-layer-centrifugation, recovered from top of the oil layer, solubilized and counted for radioactivity measured in the absence and presence of 10 μM unlabeled YCN-PIG. […]

In assay [4] the test system is CIR (115 kDa polypeptide). Put plainly: [14C]NEM-labeling and trypsin/NaCl release of CIR from rat adipocytes. The conditions noted are these: adipocytes treated before labeling. It counts as cell-based. How it is done: For trypsin/NaCl-treatment, 2 ml of adipocyte suspension (3.5×10^6 cells/ml) in KRH containing 5 mM glucose was incubated (20 min, 30° C.) in the presence of 100 μg/ml trypsin. Soy bean trypsin inhibitor (final conc. 100 μg/ml) and 2 ml of KRH containing 1 M NaCl and 0.5% BSA were added and the incubation (10 min, 22° C.) continued. For NEM-treatment, 1 ml of adipocyte suspension (3.5×10^6 cells/ml) in KRH containing 5 mM glucose was incubated (30 min, 25° C.) with NEM (1.5 mM final conc.) and then with DTT (15 mM final conc., 5 min). After the treatments, the cells were centrifuged (1500×g, 5 min, swing-out rotor) and the infranatant removed by suction. The cell suspension left (about 0.5 ml) was supplemented with 10 ml of KRH containing 0.5% BSA and then centrifuged again (500×g, 1 min, swing-out rotor). […] Proteins of the medium contained in the lower part of the tubes were precipitated (10% TCA, two acetone washes), suspended in Laemmli sample buffer and analyzed by SDS-PAGE. […]
Phosphorimages are shown from a typical experiment repeated three times with similar results. Quantitative evaluation of four different adipocyte incubations with triplicate measurements given as arbitrary units (mean±SD) with the amount of CIR released from trypsin/NaCl-treated control cells set at 100.

As to “HO—PO(H)O-6Manα1 (Manα1-2)-2-Manα1-6Manα1-4GluN1-6Ino-1,2-(cyclic)-phosphate [PIG37]”, the “Competition of IcGce1p binding” value in assay [1] was “considerably less efficient”. In assay [2], the Binding affinity entry was “intermediate” and the “efficacy in the competition assay (displacement of radiolabeled YCN-PIG from hcDIGs)” value is on record as “significantly reduced efficacy”.
Turning to Tyr-Cys-Asn-NH—(CH2)2—OH [YCN], the “Competition of IcGce1p binding” value in assay [1] is “considerably less efficient”. In addition, in assay [2], the Binding affinity result is recorded as “low” and the “efficacy in the competition assay (displacement of radiolabeled YCN-PIG from hcDIGs)” value is given as “very low activity”.
As for “Tyr-Cys-Asn-NH—(CH2)2—O—PO(OH)O-6Manα1-2)2Manα1-6Manα1-4GluN1-6Ino-1,2-(cyclic)-phosphate [YCN-PIG, phosphoinositolglycan-peptide derived from yeast Gce1p GPI anchor; also chemically synthesized]”, in assay [3] (Scatchard plot analysis, radiolabeled YCN-PIG), the Bmax was 50-200 pmol per mg protein of hcDIGs. Also, the “Bmax higher vs untreated” value in assay [3] (hcDIGs from PI-specific PLC-pretreated adipocytes, Scatchard) is reported as 2 to 3 fold. Further, the “increase in binding of YCN-PIG to hcDIGs” value in assay [3] (hcDIGs from adipocytes pretreated with GPI-specific PL (PI-specific PLC / GPI-specific PLD)) was 200%. Besides, in the assay on IcDIGs, the “YCN-PIG left associated with IcDIGs” value is given as 20%. Besides, in assay [2], the Binding affinity entry was “highest”.
With insulin: human insulin, the “stimulation of trypsin/NaCl-dependent release of [14C]NEM-labeled CIR” value in assay [4] worked out at 20%.
